By inhibition is commonly meant how much of the control response was suppressed. One may read the Ki as the equilibrium dissociation constant of an inhibitor or competing ligand from its target. One may read the pKi as −log10 of the Ki, conventionally taken in molar units.

We go through two molecules from ChEMBL document CHEMBL5058643, “Data for DCP probe BI-2081” (2022).

Structures are written as SMILES.

Experiment [1] deals with 5-hydroxytryptamine receptor 2B (Homo sapiens) (UniProt P41595). As to the kind of experiment: 5HT2B/H AG Eurofins SafetyScreen44 (BI). The settings on record: filed as agonist, Compound concentration 10.0 uM.
For experiment [2], the target named is Beta-2 adrenergic receptor (Homo sapiens) (UniProt P07550). The note with it: Compound concentration 10.0 uM.
Experiment [3] concerns the target Tyrosine-protein kinase Lck (Homo sapiens) (UniProt P06239). As to the kind of experiment: LCK_CE Eurofins SafetyScreen44 (BI). The settings on record: Compound concentration 10.0 uM.
Experiment [4] deals with Androgen receptor (Homo sapiens) (UniProt P10275). The experiment in a line: ANDROGEN/H Eurofins SafetyScreen44 (BI). The settings on record: Compound concentration 10.0 uM.
Experiment [5] addresses Beta-1 adrenergic receptor (Homo sapiens) (UniProt P08588). The experiment in a line: BETA1/HUM Eurofins SafetyScreen44 (BI). The note with it: Compound concentration 10.0 uM.
Experiment [6] has as its target Neuronal acetylcholine receptor; alpha4/beta2 (Homo sapiens) (UniProt P17787+P43681). The experiment in a line: N_NEURO_A4B2 Eurofins SafetyScreen44 (BI). It counts as protein-complex assay. The note with it: filed as agonist, Compound concentration 10.0 uM.
For experiment [7], the target named is Muscarinic acetylcholine receptor M3 (Homo sapiens, UniProt P20309). The experiment in a line: M3/H Eurofins SafetyScreen44 (BI). The note with it: Compound concentration 10.0 uM.
The target of experiment [8] is Mu-type opioid receptor (Homo sapiens) (UniProt P35372). As to the kind of experiment: MU/H Eurofins SafetyScreen44 (BI). The note with it: Compound concentration 10.0 uM.
Experiment [9] concerns the target Histamine H1 receptor (Homo sapiens) (UniProt P35367). The experiment in a line: H1/PYRIL/HS Eurofins SafetyScreen44 (BI). The settings on record: Compound concentration 10.0 uM.
The target of experiment [10] is Prostaglandin G/H synthase 1 (Homo sapiens) (UniProt P23219). The experiment in a line: COX-1 Eurofins SafetyScreen44 (BI). The note with it: Compound concentration 10.0 uM.
Experiment [11] addresses Cannabinoid receptor 2 (Homo sapiens) (UniProt P34972). As to the kind of experiment: CB2/PERIPH/H Eurofins SafetyScreen44 (BI). The settings on record: Compound concentration 10.0 uM.
The target in experiment [12] is Gamma-aminobutyric acid receptor subunit alpha-1 (Rattus norvegicus) (UniProt P62813). The experiment in a line: GABAA MUSCIMOL CENT Eurofins SafetyScreen44 (BI). The settings on record: Compound concentration 10.0 uM.
Experiment [13] has as its target T1, Alpha-1B adrenergic receptor (Homo sapiens) (UniProt P35368).
T1 sequence (whole entry): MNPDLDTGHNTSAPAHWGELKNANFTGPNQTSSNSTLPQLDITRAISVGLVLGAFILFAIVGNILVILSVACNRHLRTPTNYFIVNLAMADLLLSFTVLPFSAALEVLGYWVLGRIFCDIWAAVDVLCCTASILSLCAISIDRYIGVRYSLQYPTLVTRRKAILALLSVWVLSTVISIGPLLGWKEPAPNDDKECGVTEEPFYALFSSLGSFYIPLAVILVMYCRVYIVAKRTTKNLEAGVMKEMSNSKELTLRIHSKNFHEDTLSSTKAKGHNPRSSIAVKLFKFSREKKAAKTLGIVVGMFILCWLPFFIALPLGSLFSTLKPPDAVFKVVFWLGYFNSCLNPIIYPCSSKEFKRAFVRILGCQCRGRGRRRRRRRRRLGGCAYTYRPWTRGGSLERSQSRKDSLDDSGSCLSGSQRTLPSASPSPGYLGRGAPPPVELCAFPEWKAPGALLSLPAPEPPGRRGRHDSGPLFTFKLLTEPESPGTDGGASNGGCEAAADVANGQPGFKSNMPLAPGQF
As to the kind of experiment: ALPHA1B/R Eurofins SafetyScreen44 (BI). The settings on record: Rattus norvegicus; Compound concentration 10.0 uM.

Experiment [14] deals with T2, Muscarinic acetylcholine receptor M2 (Homo sapiens) (UniProt P08172).
T2 sequence (whole entry): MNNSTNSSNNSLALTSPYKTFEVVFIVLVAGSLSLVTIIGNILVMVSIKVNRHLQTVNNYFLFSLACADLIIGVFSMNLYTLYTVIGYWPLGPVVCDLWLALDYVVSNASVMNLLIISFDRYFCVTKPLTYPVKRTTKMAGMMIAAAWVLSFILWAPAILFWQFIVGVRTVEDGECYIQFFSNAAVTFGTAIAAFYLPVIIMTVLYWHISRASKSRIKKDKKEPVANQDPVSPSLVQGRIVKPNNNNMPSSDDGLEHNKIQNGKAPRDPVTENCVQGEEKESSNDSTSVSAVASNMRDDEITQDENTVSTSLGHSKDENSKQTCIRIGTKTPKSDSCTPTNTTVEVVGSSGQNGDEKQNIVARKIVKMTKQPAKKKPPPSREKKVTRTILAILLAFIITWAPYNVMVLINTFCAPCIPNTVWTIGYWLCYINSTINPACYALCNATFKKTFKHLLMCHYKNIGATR
As to the kind of experiment: M2/HU Eurofins SafetyScreen44 (BI). The note with it: Compound concentration 10.0 uM.

Experiment [15] concerns the target P2X purinoceptor (Oryctolagus cuniculus) (UniProt G1U3D6). The experiment in a line: P2X/RB Eurofins SafetyScreen44 (BI). The note with it: Compound concentration 10.0 uM.
For experiment [16], the target named is Glutamate NMDA receptor (Rattus norvegicus) (UniProt P35439+Q00959+Q00960+Q00961+Q62645+Q8VHN2+Q9R1M7). As to the kind of experiment: NMDAAGSI/RA Eurofins SafetyScreen44 (BI). The settings on record: filed as agonist, Compound concentration 10.0 uM.
The target in experiment [17] is ATP-sensitive inward rectifier potassium channel 1 isoform X1 (Mesocricetus auratus) (UniProt A0A1U8CU73). The experiment in a line: K+/KATP/HA Eurofins SafetyScreen44 (BI). The settings on record: Cricetinae; Compound concentration 10.0 uM.
The target of experiment [18] is Sodium-dependent noradrenaline transporter (Homo sapiens) (UniProt P23975). As to the kind of experiment: NETRANS/H Eurofins SafetyScreen44 (BI). The note with it: Compound concentration 10.0 uM.
Experiment [19] concerns the target GABA-A receptor; anion channel. The experiment in a line: GPCRScan assay: inhibition of GABAA/BZP. More on the design: radioligand conc. used [nm] 0.6 – 4.0, parental cells brain tissue. The class given is protein-complex assay, Rattus norvegicus.
Experiment [20] addresses Kappa-type opioid receptor (Homo sapiens) (UniProt P41145). The experiment in a line: KAPPA/HU Eurofins SafetyScreen44 (BI). The note with it: Compound concentration 10.0 uM.
In experiment [21] the target is Melatonin receptor type 1A (Homo sapiens) (UniProt P48039). The experiment in a line: MT1/H Eurofins SafetyScreen44 (BI). The note with it: Compound concentration 10.0 uM.
The target in experiment [22] is T3, Alpha-1A adrenergic receptor (Homo sapiens) (UniProt P35348).
T3 sequence (whole entry): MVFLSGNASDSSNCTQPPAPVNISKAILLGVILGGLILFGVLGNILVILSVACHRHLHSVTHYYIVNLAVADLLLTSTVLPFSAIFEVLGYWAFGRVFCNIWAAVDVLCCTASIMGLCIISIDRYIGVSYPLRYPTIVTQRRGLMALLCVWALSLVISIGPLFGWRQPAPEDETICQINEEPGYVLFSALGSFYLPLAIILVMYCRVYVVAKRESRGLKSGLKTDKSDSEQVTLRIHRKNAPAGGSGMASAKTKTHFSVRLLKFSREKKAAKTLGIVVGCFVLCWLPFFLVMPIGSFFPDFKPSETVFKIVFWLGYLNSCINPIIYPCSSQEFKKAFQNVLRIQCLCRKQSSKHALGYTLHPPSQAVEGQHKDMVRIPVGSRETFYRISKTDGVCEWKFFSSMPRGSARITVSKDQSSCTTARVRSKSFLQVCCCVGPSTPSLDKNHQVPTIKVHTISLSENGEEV
As to the kind of experiment: ALPHA1A/R Eurofins SafetyScreen44 (BI). The note with it: Rattus norvegicus; Compound concentration 10.0 uM.

Experiment [23] concerns the target Histamine H2 receptor (Homo sapiens) (UniProt P25021). The experiment in a line: H2/H Eurofins SafetyScreen44 (BI). The note with it: Compound concentration 10.0 uM.
The target of experiment [24] is Epidermal growth factor receptor (Homo sapiens) (UniProt P00533). As to the kind of experiment: EGF/HU Eurofins SafetyScreen44 (BI). The note with it: Compound concentration 10.0 uM.
In experiment [25] the target is Histamine H3 receptor (Homo sapiens) (UniProt Q9Y5N1). As to the kind of experiment: H3/H Eurofins SafetyScreen44 (BI). The note with it: Compound concentration 10.0 uM.
Sequence of Histamine H3 receptor (Homo sapiens) (Q9Y5N1 whole entry): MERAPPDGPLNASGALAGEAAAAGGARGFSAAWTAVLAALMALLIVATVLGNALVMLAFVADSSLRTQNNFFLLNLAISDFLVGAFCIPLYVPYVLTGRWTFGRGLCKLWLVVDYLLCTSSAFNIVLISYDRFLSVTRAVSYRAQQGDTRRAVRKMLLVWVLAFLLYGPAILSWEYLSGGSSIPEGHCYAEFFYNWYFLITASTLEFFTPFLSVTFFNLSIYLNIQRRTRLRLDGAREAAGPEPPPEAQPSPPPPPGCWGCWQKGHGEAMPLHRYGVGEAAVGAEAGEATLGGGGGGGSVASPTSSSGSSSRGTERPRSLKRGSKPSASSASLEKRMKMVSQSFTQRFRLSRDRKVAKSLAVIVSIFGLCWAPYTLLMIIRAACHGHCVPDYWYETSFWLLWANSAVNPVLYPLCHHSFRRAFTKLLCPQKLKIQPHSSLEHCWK

Sequence of Beta-2 adrenergic receptor (Homo sapiens) (P07550 whole entry, looked up): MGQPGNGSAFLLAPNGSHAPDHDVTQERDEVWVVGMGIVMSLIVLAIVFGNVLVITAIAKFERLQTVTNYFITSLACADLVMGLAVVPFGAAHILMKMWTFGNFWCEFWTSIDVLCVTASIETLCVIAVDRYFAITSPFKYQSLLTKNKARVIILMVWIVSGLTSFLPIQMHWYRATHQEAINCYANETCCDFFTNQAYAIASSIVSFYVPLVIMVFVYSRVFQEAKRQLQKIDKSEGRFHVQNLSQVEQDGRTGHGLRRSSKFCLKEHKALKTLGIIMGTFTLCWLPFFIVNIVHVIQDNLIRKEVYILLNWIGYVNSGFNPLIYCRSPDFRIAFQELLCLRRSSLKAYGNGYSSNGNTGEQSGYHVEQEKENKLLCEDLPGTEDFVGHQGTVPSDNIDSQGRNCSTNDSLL
Sequence of Muscarinic acetylcholine receptor M3 (P20309 whole entry, looked up): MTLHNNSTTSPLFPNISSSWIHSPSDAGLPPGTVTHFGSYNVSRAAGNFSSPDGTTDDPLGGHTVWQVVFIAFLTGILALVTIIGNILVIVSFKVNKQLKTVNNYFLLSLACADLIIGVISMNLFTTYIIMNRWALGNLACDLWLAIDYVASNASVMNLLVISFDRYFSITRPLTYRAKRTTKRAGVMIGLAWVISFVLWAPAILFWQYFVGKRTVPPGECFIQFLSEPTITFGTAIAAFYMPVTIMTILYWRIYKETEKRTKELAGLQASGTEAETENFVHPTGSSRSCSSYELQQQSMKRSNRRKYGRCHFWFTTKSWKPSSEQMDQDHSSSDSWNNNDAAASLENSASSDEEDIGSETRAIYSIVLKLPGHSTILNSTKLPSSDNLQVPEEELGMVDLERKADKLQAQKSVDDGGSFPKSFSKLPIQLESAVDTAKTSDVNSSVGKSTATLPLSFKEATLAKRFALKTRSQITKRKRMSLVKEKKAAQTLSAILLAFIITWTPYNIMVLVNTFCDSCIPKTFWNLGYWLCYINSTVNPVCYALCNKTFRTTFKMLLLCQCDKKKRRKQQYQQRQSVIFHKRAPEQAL
Sequence of Histamine H1 receptor (Homo sapiens) (P35367 whole entry): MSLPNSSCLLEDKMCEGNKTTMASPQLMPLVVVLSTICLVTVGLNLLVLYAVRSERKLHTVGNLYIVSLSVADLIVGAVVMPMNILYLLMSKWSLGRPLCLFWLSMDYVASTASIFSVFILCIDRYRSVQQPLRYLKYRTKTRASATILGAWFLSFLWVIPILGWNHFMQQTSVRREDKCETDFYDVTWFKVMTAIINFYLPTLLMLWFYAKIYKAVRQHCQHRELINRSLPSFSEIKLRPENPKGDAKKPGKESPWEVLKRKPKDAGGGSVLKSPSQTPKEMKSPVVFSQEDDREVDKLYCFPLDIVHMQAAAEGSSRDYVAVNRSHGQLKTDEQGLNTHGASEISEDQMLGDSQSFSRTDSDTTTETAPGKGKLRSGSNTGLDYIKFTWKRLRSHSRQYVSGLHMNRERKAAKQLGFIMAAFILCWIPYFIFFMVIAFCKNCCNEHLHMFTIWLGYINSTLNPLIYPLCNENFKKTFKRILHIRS
Sequence of ATP-sensitive inward rectifier potassium channel 1 isoform X1 (Mesocricetus auratus) (A0A1U8CU73 as listed by the source): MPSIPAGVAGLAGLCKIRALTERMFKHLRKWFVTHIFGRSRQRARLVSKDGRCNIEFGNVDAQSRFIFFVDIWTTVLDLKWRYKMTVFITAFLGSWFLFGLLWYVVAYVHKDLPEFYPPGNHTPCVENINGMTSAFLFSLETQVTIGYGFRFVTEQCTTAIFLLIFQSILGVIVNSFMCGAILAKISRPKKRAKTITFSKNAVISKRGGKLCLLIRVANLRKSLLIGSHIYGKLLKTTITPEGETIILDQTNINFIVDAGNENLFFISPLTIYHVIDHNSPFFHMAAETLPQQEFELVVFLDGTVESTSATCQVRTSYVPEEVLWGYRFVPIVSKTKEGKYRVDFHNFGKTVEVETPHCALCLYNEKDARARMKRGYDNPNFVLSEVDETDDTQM
Sequence of Tyrosine-protein kinase Lck (Homo sapiens) (P06239 2-509 limits assumed): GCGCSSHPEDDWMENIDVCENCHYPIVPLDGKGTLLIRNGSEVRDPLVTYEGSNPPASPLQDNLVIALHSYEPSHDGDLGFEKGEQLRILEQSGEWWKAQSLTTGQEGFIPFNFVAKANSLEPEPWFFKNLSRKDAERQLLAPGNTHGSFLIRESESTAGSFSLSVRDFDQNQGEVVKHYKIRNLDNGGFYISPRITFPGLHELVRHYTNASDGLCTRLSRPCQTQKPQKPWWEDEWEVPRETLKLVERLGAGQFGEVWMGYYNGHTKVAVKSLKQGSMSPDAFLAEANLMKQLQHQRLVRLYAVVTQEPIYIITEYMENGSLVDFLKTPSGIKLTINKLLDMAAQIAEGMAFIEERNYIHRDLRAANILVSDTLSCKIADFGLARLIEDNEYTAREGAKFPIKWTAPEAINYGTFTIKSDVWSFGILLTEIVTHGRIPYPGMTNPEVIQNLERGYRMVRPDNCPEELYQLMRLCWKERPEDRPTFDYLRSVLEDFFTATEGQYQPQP
Sequence of Androgen receptor (Homo sapiens) (P10275 whole entry): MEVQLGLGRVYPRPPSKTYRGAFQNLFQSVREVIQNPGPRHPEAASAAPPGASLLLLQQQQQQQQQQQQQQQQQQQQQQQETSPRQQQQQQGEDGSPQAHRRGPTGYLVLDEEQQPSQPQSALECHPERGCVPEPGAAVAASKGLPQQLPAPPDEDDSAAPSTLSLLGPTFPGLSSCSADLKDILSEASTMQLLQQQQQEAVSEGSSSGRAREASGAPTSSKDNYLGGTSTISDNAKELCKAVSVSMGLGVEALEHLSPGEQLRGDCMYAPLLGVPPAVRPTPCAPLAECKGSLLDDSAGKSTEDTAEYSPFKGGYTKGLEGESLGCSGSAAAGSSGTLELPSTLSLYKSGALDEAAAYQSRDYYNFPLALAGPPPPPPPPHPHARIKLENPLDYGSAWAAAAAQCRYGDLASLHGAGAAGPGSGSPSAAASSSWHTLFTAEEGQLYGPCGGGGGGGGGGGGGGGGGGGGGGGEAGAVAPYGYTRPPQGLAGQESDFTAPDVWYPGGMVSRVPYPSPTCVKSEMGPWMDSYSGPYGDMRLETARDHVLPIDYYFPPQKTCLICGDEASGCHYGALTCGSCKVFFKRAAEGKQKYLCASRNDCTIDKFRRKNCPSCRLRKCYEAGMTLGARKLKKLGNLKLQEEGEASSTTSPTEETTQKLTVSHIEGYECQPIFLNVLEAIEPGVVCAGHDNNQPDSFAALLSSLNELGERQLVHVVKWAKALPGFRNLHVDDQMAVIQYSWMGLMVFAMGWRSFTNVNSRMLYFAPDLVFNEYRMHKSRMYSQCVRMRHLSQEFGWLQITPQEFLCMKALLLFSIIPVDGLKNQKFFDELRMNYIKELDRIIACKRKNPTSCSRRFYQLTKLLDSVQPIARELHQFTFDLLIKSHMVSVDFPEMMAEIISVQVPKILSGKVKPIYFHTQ
Sequence of P2X purinoceptor (Oryctolagus cuniculus) (G1U3D6 as listed by the source): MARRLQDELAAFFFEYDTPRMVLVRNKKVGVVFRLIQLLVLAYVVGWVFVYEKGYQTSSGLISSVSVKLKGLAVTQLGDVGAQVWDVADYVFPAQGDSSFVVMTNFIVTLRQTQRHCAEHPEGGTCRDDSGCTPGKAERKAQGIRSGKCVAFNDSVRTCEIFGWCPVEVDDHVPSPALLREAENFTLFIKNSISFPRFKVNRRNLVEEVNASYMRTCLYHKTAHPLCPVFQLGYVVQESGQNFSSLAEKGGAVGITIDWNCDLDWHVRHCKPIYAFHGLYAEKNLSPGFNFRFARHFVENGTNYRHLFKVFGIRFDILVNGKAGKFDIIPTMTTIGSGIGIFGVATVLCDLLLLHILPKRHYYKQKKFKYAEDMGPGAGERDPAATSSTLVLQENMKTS
Sequence of Sodium-dependent noradrenaline transporter (Homo sapiens) (P23975 whole entry): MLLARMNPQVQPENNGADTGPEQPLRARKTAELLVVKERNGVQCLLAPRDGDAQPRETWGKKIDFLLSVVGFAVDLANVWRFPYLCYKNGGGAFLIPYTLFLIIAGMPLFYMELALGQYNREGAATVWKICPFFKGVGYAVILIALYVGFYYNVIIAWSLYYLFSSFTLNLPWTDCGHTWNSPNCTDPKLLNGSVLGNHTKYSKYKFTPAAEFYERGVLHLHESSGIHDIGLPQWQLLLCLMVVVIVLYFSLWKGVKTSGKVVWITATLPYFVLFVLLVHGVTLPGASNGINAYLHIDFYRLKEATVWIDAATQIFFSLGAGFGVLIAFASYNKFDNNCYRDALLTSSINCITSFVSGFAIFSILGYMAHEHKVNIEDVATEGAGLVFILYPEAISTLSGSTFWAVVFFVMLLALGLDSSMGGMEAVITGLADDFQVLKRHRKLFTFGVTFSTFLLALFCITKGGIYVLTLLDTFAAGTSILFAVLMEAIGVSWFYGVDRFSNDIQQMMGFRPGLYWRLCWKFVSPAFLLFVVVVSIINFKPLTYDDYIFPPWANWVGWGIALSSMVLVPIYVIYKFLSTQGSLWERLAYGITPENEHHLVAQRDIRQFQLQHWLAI

Take `COCCCS(=O)(=O)c1cc(C)c(-c2ccc(F)c3c2CC[C@H]3Oc2ccc3c(c2)OC[C@H]3CC(=O)O)c(C)c1`: the residual activity in experiment [1] is 103%; in experiment [3] it was 77%; in experiment [4], 102%; in experiment [5] it was 88%; in experiment [6] it was 112%; in experiment [7], 95%. Further, the residual activity was 75% in [8], 87% in [9], 88% in experiment [10] and 115% in experiment [11]. The inhibition in experiment [2] was 2.56%.
Take `Cc1cc(OCCC(C)(C)O)cc(C)c1-c1ccc(F)c2c1CC[C@H]2Oc1ccc2c(c1)OC[C@H]2CC(=O)O`: the residual activity was 87% in experiment [12]; 114% in experiment [13]; 92% in experiment [14]; 122% in experiment [15]; 89% in [16]; 95% in experiment [17]. Also, the residual activity in [18] was 68%; in experiment [20], 106%; in experiment [21] it was 98%; in experiment [22], 73%; in experiment [23] it was 95%; in [24], 99%. For the same molecule, in experiment [25], the residual activity is 111%. Besides, the Ki in experiment [19] was over 10 µM. The pKi in experiment [19] is reported as under 5.
